The results in this text go back to publication PMC9516332 (Frontiers in Oncology, 2022).

Assay [1] has as its system AP-1060 (ETV6-NTRK3). Description: Cell viability assay. Conditions: read-out: IC50 in cell proliferation assay.
In assay [2] the test system is 134 cancer cell lines. Description: Cell viability assay (ATPlite, 72 hours), IC50 on cancer cell line panel. To be noted: 134 cell line panel. In general terms: ATP-based viability assays read luminescence as a measure of living cells.

For the molecule `C=CC(=O)Nc1cc(Nc2nccc(-c3cn(C)c4ccccc34)n2)c(OC)cc1N(C)CCN(C)C` [osimertinib], the IC50 in assay [1] came to 1.94 µM. Also, in assay [2], the “lower IC50 of the most sensitive cell line compared to the panel average” value was “around 300 fold”.
